Data published in US12180207B2 (ARRAY BIOPHARMA INC., priority 2018, dated 2024).

Key:
[1] = molecular target: phosphorylated FGFR3 (SEQ ID NO: 5, amino acids 449 to 759) (Homo sapiens (Human), UniProt P22607); assay: FGFR enzyme binding assay (HTRF tracer displacement), FGFR3; conditions: 5 nM phosphorylated FGFR3, average of multiple determinations if made
In short: (§1)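 Kinase and tracer were incubated with compound for 60 minutes at 22° C. Tracer displacement was then measured by HTRF, and results were expressed as POC with 1 μM control inhibitor defining full displacement.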

[2] = molecular target: recombinant human FGFR3 (amino acids R397-T806) (Homo sapiens (Human), UniProt P22607); assay: FGFR3 enzyme activity assay (LanthaScreen TR-FRET); type: biochemical; conditions: 25 μM ATP, 10 min incubation at 22° C., average of multiple determinations if made, read-out: FGFR3 Enz FRET IC50
In short: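 GST-HIS6-tagged human FGFR3 (R397-T806) was reacted with 100 nM Alexa Fluor 647-Poly-GT substrate and 25 μM ATP plus compound in HEPES/MgCl2/Triton buffer, pH 7.5, 2% DMSO, for 10 min at 22 °C.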

[3] = molecular target: dephosphorylated FGFR1 (SEQ ID NO: 1, amino acids 458 to 765) (Homo sapiens (Human), UniProt P11362); assay: FGFR enzyme binding assay (HTRF tracer displacement), FGFR1; conditions: 5 nM dephosphorylated FGFR1, average of multiple determinations if made
In short: as §1

[4] = molecular target: recombinant human FGFR1 catalytic domain (amino acids 308-731) (Homo sapiens (Human), UniProt P11362); assay: FGFR1 enzyme activity assay (LanthaScreen TR-FRET); type: biochemical; conditions: 20 min incubation at 22° C., average of multiple determinations if made, read-out: FGFR1 Enz FRET IC50
In short: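 His-tagged FGFR1 kinase domain with 100 nM Alexa Fluor 647-poly-GT peptide and ATP in pH 7.5 HEPES/MgCl2 buffer with 2% DMSO, 20 min at 22 °C. Quenched with EDTA plus 2 nM Eu-PY20 antibody and read after 60 min. IC50 comes from a 4-parameter fit of percent of control.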

[5] = molecular target: recombinant human FGFR2 cytoplasmic domain (amino acids 403-822) (Homo sapiens (Human), UniProt P21802); assay: FGFR2 enzyme activity assay (LanthaScreen TR-FRET); type: biochemical; conditions: 15 μM ATP, 20 min incubation at 22° C., average of multiple determinations if made, read-out: FGFR2 Enz FRET IC50
In short: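 Substrate phosphorylation was read by TR-FRET using Eu-PY20 antibody (60 min, 22 °C) after a 20 min, 22 °C reaction. The reaction used 15 μM ATP, 100 nM fluorescent poly-GT peptide and His-tagged FGFR2 403-822 ([…]) at pH 7.5 with 2% DMSO.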

Chain of recombinant human FGFR3 (amino acids R397-T806) (P22607 397-806): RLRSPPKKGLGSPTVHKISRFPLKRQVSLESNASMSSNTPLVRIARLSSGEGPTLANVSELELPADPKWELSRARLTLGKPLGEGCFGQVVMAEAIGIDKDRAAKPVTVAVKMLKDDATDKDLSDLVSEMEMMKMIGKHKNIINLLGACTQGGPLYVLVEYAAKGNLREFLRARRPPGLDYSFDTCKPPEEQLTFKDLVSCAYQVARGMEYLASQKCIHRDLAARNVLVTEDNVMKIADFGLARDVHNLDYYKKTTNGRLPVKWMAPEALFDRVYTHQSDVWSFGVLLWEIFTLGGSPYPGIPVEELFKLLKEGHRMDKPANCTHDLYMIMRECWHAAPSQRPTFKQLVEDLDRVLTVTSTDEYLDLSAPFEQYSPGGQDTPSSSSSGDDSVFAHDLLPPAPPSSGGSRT
Chain of phosphorylated FGFR3 (SEQ ID NO: 5, amino acids 449 to 759) (P22607 449-759): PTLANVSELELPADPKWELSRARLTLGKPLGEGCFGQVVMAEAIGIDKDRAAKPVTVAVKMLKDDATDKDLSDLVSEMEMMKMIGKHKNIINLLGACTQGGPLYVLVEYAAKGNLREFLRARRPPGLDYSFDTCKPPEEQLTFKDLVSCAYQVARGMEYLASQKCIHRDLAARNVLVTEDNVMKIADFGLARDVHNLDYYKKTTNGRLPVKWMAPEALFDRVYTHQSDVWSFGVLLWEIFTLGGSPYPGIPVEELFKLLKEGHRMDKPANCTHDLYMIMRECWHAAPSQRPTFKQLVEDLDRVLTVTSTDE
Chain of recombinant human FGFR1 catalytic domain (amino acids 308-731) (P11362 other isoform, or with tags, fused parts or gaps): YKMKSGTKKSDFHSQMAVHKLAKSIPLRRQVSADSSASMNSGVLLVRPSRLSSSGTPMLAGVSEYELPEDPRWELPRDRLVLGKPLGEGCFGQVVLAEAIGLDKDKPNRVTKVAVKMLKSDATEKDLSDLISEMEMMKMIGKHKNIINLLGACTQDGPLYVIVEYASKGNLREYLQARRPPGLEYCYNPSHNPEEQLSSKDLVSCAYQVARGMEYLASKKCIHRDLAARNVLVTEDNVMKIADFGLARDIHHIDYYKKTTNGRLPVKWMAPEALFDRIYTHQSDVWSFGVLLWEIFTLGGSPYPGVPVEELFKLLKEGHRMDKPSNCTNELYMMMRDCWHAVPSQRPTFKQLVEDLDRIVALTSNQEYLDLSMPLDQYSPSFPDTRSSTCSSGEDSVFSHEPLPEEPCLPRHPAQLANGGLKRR
Chain of dephosphorylated FGFR1 (SEQ ID NO: 1, amino acids 458 to 765) (P11362 458-765): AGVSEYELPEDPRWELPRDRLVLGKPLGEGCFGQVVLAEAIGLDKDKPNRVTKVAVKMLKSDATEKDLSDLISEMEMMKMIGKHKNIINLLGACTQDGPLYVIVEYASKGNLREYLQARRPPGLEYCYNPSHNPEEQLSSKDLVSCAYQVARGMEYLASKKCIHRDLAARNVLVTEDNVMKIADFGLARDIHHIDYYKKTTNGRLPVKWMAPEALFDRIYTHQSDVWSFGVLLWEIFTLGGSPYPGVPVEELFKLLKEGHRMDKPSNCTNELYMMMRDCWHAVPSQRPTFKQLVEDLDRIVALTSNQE
Chain of recombinant human FGFR2 cytoplasmic domain (amino acids 403-822) (P21802 402-821): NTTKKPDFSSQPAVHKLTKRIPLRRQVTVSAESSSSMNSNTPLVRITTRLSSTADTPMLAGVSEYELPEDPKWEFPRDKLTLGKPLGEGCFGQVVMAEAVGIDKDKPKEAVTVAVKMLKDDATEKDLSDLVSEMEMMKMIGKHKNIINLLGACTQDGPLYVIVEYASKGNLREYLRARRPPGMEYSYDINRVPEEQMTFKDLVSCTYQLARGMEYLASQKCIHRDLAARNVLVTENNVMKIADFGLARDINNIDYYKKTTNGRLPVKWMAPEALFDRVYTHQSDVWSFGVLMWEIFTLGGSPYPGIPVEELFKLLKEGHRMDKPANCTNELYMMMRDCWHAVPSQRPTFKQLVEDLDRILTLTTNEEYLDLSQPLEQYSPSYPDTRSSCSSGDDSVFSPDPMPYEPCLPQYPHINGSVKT

In the case of `C=CC(=O)N1CC(OC)(C(=O)N2CCC(n3cc(-c4cc(OC)c5c(C#N)cnn5c4)cn3)CC2)C1` [Example 41, 6-(1-(1-(1-acryloyl-3-methoxyazetidine-3-carbonyl)piperidin-4-yl)-1H-pyrazol-4-yl)-4-methoxypyrazolo[1,5-a]pyridine-3-carbonitrile], the IC50 [1] is reported as 3 nM, the IC50 [2] is reported as 2 nM and the IC50 [3] is reported as 61 nM. For the same compound, the IC50 [4] was 2 nM and the IC50 [5] was 1 nM.

Compound `C=CC(=O)N1CC(C(=O)N2CCC(n3cc(-c4cc(OC)c5c(C#N)cnn5c4)cn3)CC2)C1C` (centres unmarked) [Example 42, 6-(1-(1-(1-acryloyl-2-methylazetidine-3-carbonyl)piperidin-4-yl)-1H-pyrazol-4-yl)-4-methoxypyrazolo[1,5-a]pyridine-3-carbonitrile] has an IC50 [1] of 3 nM, an IC50 [2] of 2 nM and an IC50 [3] of 43 nM. For the same compound, the IC50 [4] was 11 nM and the IC50 [5] was 6 nM.

`C=CC(=O)N1CC(C(=O)N2CCC(n3cc(-c4cc(OC)c5c(C#N)cnn5c4)cn3)CC2)C1(C)C` (centres unmarked) [Example 43, 6-(1-(1-(1-acryloyl-2,2-dimethylazetidine-3-carbonyl)piperidin-4-yl)-1H-pyrazol-4-yl)-4-methoxypyrazolo[1,5-a]pyridine-3-carbonitrile] showed an IC50 [1] of 4 nM, an IC50 [2] of 2 nM and an IC50 [3] of 54 nM. For the same compound, the IC50 [4] was 6 nM and the IC50 [5] was 3 nM.

With `C=CC(=O)N1CC(C(=O)N2C3CCC2CN(c2ccc(-c4cc(OC)c5c(C#N)cnn5c4)cn2)C3)C1` [Example 50, 6-(6-(8-(1-acryloylazetidine-3-carbonyl)-3,8-diazabicyclo[3.2.1]octan-3-yl)pyridin-3-yl)-4-methoxypyrazolo[1,5-a]pyridine-3-carbonitrile] the IC50 [1] was 3 nM, the IC50 [2] was 10 nM and the IC50 [3] was 27 nM. The IC50 [4] was 24 nM and the IC50 [5] was 4 nM.

`C=CC(=O)N1CC(C(=O)N2CC3CCC(C2)N3c2ccc(-c3cc(OC)c4c(C#N)cnn4c3)cn2)C1` [Example 51, 6-(6-(3-(1-acryloylazetidine-3-carbonyl)-3,8-diazabicyclo[3.2.1]octan-8-yl)pyridin-3-yl)-4-methoxypyrazolo[1,5-a]pyridine-3-carbonitrile] was tested, and the IC50 [1] was 9 nM, the IC50 [2] was 22 nM and the IC50 [3] was 70 nM. The IC50 [4] was 34 nM and the IC50 [5] was 9 nM.

Compound `C=CC(=O)N1CC(C(=O)N2C3CC2CN(c2ccc(-c4cc(OC)c5c(C#N)cnn5c4)cn2)C3)C1` [Example 52, 6-(6-(6-(1-acryloylazetidine-3-carbonyl)-3,6-diazabicyclo[3.1.1]heptan-3-yl)pyridin-3-yl)-4-methoxypyrazolo[1,5-a]pyridine-3-carbonitrile] has an IC50 [1] of 14 nM, an IC50 [2] of 34 nM and an IC50 [3] of 86 nM. For the same compound, the IC50 [4] was 66 nM and the IC50 [5] was 14 nM.

For `C=CC(=O)Nc1ccc(C(=O)N2CC[C@@H](n3cc(-c4cc(OC)c5c(C#N)cnn5c4)cn3)C2)cc1` [Example 55, (R)-N-(4-(3-(4-(3-cyano-4-methoxypyrazolo[1,5-a]pyridin-6-yl)-1H-pyrazol-1-yl)pyrrolidine-1-carbonyl)phenyl)acrylamide], the IC50 [1] was 7 nM, the IC50 [2] was 9 nM and the IC50 [3] was 98 nM. For the same compound, the IC50 [4] was 19 nM and the IC50 [5] was 5 nM.

With `C=CC(=O)Nc1cccc(C(=O)N2CC[C@@H](n3cc(-c4cc(OC)c5c(C#N)cnn5c4)cn3)C2)c1` [Example 56, (R)-N-(3-(3-(4-(3-cyano-4-methoxypyrazolo[1,5-a]pyridin-6-yl)-1H-pyrazol-1-yl)pyrrolidine-1-carbonyl)phenyl)acrylamide] the IC50 [1] was 18 nM, the IC50 [2] was 10 nM and the IC50 [3] was 135 nM. It also gave an IC50 [4] of 28 nM and an IC50 [5] of 8 nM.

Work on `C=CC(=O)N1CC(C(=O)N2CC[C@@H](n3cc(-c4cc(OC)c5c(C#N)cnn5c4)cn3)C2)C1` [Example 59, (R)-6-(1-(1-(1-acryloylazetidine-3-carbonyl)pyrrolidin-3-yl)-1H-pyrazol-4-yl)-4-methoxypyrazolo[1,5-a]pyridine-3-carbonitrile] yielded an IC50 [1] of 16 nM, an IC50 [2] of 16 nM and an IC50 [3] of 115 nM. It also gave an IC50 [4] of 47 nM and an IC50 [5] of 16 nM.

For `C=CC(=O)Nc1ccc(C(=O)N2CC[C@H](n3cc(-c4cc(OC)c5c(C#N)cnn5c4)cn3)C2)cc1` [Example 66, (S)-N-(4-(3-(4-(3-cyano-4-methoxypyrazolo[1,5-a]pyridin-6-yl)-1H-pyrazol-1-yl)pyrrolidine-1-carbonyl)phenyl)acrylamide], the IC50 [1] was 10 nM, the IC50 [2] was 7 nM and the IC50 [3] was 72 nM. The IC50 [4] was 16 nM and the IC50 [5] was 5 nM.

For `C=CC(=O)Nc1ccc(C(=O)N2CC[C@H](n3cc(-c4cc(OC)c5c(C#N)cnn5c4)cn3)C2)c(C)c1` [Example 68, (S)-N-(4-(3-(4-(3-cyano-4-methoxypyrazolo[1,5-a]pyridin-6-yl)-1H-pyrazol-1-yl)pyrrolidine-1-carbonyl)-3-methylphenyl)acrylamide], the IC50 [1] was 13 nM, the IC50 [2] was 5 nM and the IC50 [3] was 94 nM. For the same compound, the IC50 [4] was 6 nM and the IC50 [5] was 4 nM.

`C=CC(=O)Nc1ccc(C(=O)N2CC[C@H](n3cc(-c4cc(OC)c5c(C#N)cnn5c4)cn3)C2)c(OC)c1` [Example 69, (S)-N-(4-(3-(4-(3-cyano-4-methoxypyrazolo[1,5-a]pyridin-6-yl)-1H-pyrazol-1-yl)pyrrolidine-1-carbonyl)-3-methoxyphenyl)acrylamide] gave an IC50 [1] of 11 nM, an IC50 [2] of 6 nM and an IC50 [3] of 77 nM. It also gave an IC50 [4] of 12 nM and an IC50 [5] of 6 nM.

Work on `C=CC(=O)Nc1ccc(C(=O)N2CC[C@H](n3cc(-c4cc(OC)c5c(C#N)cnn5c4)cn3)C2)cc1C` [Example 70, (S)-N-(4-(3-(4-(3-cyano-4-methoxypyrazolo[1,5-a]pyridin-6-yl)-1H-pyrazol-1-yl)pyrrolidine-1-carbonyl)-2-methylphenyl)acrylamide] yielded an IC50 [1] of 30 nM, an IC50 [2] of 6 nM and an IC50 [3] of 199 nM. For the same compound, the IC50 [4] was 16 nM and the IC50 [5] was 4 nM.

`C=CC(=O)Nc1ccc(C(=O)N2CC[C@H](n3cc(-c4cc(OC)c5c(C#N)cnn5c4)cn3)C2)cc1OC` [Example 71, (S)-N-(4-(3-(4-(3-cyano-4-methoxypyrazolo[1,5-a]pyridin-6-yl)-1H-pyrazol-1-yl)pyrrolidine-1-carbonyl)-2-methoxyphenyl)acryla72 mide] was tested, and the IC50 [1] was 18 nM, the IC50 [2] was 6 nM and the IC50 [3] was 147 nM. The IC50 [4] was 18 nM and the IC50 [5] was 4 nM.

In the case of `C=CC(=O)N1CC(C(=O)N2CC[C@H](n3cc(-c4cc(OC)c5c(C#N)cnn5c4)cn3)C2)C1` [Example 73, (S)-6-(1-(1-(1-acryloylazetidine-3-carbonyl)pyrrolidin-3-yl)-1H-pyrazol-4-yl)-4-methoxypyrazolo[1,5-a]pyridine-3-carbonitrile], the IC50 [1] is reported as 7 nM, the IC50 [2] is reported as 4 nM and the IC50 [3] is reported as 58 nM. It also gave an IC50 [4] of 20 nM and an IC50 [5] of 4 nM.

`C=CC(=O)N1CC[C@H](C(=O)N2CC(n3cc(-c4cc(OC)c5c(C#N)cnn5c4)cn3)C2)C1` [Example 76, (S)-6-(1-(1-(1-acryloylpyrrolidine-3-carbonyl)azetidin-3-yl)-1H-pyrazol-4-yl)-4-methoxypyrazolo[1,5-a]pyridine-3-carbonitrile] showed an IC50 [1] of 55 nM, an IC50 [2] of 13 nM and an IC50 [3] of 409 nM. The IC50 [4] was 52 nM and the IC50 [5] was 17 nM.

Compound `C=CC(=O)N1CC(C(=O)N2CC(n3cc(-c4cc(OC)c5c(C#N)cnn5c4)cn3)C2)C1` [Example 78, 6-(1-(1-(1-acryloylazetidine-3-carbonyl)azetidin-3-yl)-1H-pyrazol-4-yl)-4-methoxypyrazolo[1,5-a]pyridine-3-carbonitrile] has an IC50 [1] of 8 nM, an IC50 [2] of 12 nM and an IC50 [3] of 98 nM. The IC50 [4] was 17 nM and the IC50 [5] was 23 nM.

`C=CC(=O)N1CC(CN2CC(n3cc(-c4cc(OC)c5c(C#N)cnn5c4)cn3)C2)C1` [Example 81, 6-(1-(1-((1-acryloylazetidin-3-yl)methyl)azetidin-3-yl)-1H-pyrazol-4-yl)-4-methoxypyrazolo[1,5-a]pyridine-3-carbonitrile] showed an IC50 [1] of 60 nM, an IC50 [2] of 9 nM and an IC50 [3] of 186 nM. It also gave an IC50 [4] of 31 nM and an IC50 [5] of 8 nM.

`C=CC(=O)N1CCC(C(=O)N2CCC(n3ncc(-c4cc(OC)c5c(C#N)cnn5c4)c3C)CC2)CC1` [Example 82, 6-(1-(1-(1-acryloylpiperidine-4-carbonyl)piperidin-4-yl)-5-methyl-1H-pyrazol-4-yl)-4-methoxypyrazolo[1,5-a]pyridine-3-carbonitrile] was tested, and the IC50 [1] was 23 nM, the IC50 [2] was 10 nM and the IC50 [3] was 374 nM. It also gave an IC50 [4] of 73 nM and an IC50 [5] of 9 nM.
